Data: patent publication US8586548B2, “NAP alpha-aminoisobutyric acid analog with neuroprotective activity” (Ramot at Tel-Aviv University, Ltd., priority 2009, dated 2013)
Entries after “also recorded” stand apart in the source; their conditions may differ. Non-standard residues stand in square brackets, D forms with d. No end group written: not given here. Aib = CC(C)(N)C(=O)O

Assays:
[1] = biological target: VQIVYK (SEQ ID NO:10) peptide derived from tau (Homo sapiens, UniProt P10636); assay: In vitro tau-like VQIVYK aggregation assay (Thioflavin S); type: biochemical
Method: In the presence of polyglutamic acid (or heparin), VQIVYK (SEQ ID NO:10) aggregates which can be further detected by Thioflavin S (excitation 485 nm and emission 535) with emission intensity greatly increasing.
First, different concentrations of polyglutamic acid (0, 100 μM, 250 μM, and 400 μM) VQIVYK (SEQ ID NO:10) and either […] (NH4Ac) 50 mM pH 6.5 or MOPS 20 mM pH 6.5 and Thioflavin S 5 μM were mixed together and incubated at room temperature. The extent of aggregation was read at excitation 485 nm and emission 535 nm using the infinite 200 system with the Magellan program.
The peptides were added at a range of concentrations (10^−17-10^−9 M) and the extent of aggregation of 100 μM VQIVYK (SEQ ID NO:10) was tested in the presence of polyglutamate 250 μM in MOPS 20 μM, pH 6.5 for 7 days.
In order to avoid reading self peptide aggregation as VQIVYK aggregation, for each peptide concentration, the fluorescence of the peptide solution without VQIVYK was subtracted from the fluorescence of each peptide concentration containing VQIVYK.

[2] = tested on: cerebral cortical cultures derived from newborn rats; assay: Neuronal survival in cerebral cortical cultures treated with beta-amyloid peptide (1-42); type: cell-based, rat; details: for protection of neurons against neurotoxicity of beta-amyloid peptide 1-42 (neuronal cell numbers): 2.5 μM beta-amyloid peptide (1-42), peptide 10^−16M to 10^−10M, p<0.001, FIG. 1; for neuroprotective activity compared with unmodified NAP: FIG. 1 compared with FIG. 2, 2.5 micromolar beta amyloid peptide
Method: All peptides were dissolved in distilled sterile water to a concentration of 1 mM and then diluted in water in 1:10 steps up to the required concentration. The beta-amyloid peptide (1-42) was obtained from American Peptides, Calif., USA.
Cerebral cortical cultures derived from newborn rats were used for neuron survival assays. For mixed neuroglial cultures, neurons 300,000 cells/35 mm dish were seeded on 8-day-old astrocytes prepared as described (Bassan et al., supra (1999); Brenneman et al., supra (2004)). Cells were allowed to grow for one week at 37° C. 10% CO2 before experiments were performed. Four days after neuronal plating, cultures were given their respective treatment and assayed for neuronal survival after an additional 5 day incubation period.
The culture medium was removed and cells were washed twice with phosphate buffered saline (PBS). 1.5 ml of 3% glutaraldehyde (Fluka Biochemika, Steinheim, Germany) in 0.1 M cacodylic acid pH 7.2 (Fluka Biochemika, Steinheim, Germany) was added for two hours. The cells were then washed with PBS and 2 ml of 0.15 M cacodylic acid pH 7.2 was added. Neuronal identity was established by morphological criteria using an Olympus CK2 light microscope (Olympus, Japan) with a X40 lens. Fifty fields were counted in each dish (Zemlyak et al., supra (2000)).
The number of surviving neurons was assessed in cerebral cortical cultures derived from newborn rats using the beta-amyloid peptide (1-42), an Alzheimer's disease-associated toxin, at 2.5 μM. Alpha-aminoisobutric NAP was used at the following concentrations: 10^−16M, 10^−15M, 10^−12M, 10^−10M. […] Cell counts totaled>100% of control, because the treatment prevents neuronal cell death that occurred naturally in the cultures (10-20%), as observed before (Bassan et al., supra (1999)). […] This is an unexpected finding in view of previous reports that describe the SIP motif as essential for NAP neuroprotection (Wilkemeyer et al., Proc Natl Acad Sci USA, 100(14):8543-8 (2003)).

[3] = 100 μM VQIVYK, polyglutamate 250 μM, MOPS pH 6.5, 7 days, FIG. 4, p<0.0005 vs. control, listed as IsoNAP
[4] = listed as Alpha-aminoisobutric NAP

Substance: NAXaaVSIXaaQ (NA[Aib]VSI[Aib]Q) [Alpha-aminoisobutyric NAP, both prolines of NAP substituted]
- inhibition of tau aggregation at 10^−13M [1, 3]: remains effective; also recorded: more effective than NAP
- inhibition of tau aggregation at 10^−17M [1, 3]: more potent; also recorded: more effective than NAP
- prevention of tau aggregation (overall) ([1]; peptides at 10^−17-10^−9 M): effective for preventing tau aggregation
- cell counts ([2]; 2.5 μM beta-amyloid peptide (1-42) plus peptide): > 100 % of control
- protection of neurons against neurotoxicity of beta-amyloid peptide 1-42 (neuronal cell numbers) [2, 4]: protected against neurotoxicity associated with the beta-amyloid peptide 1-42
- protection of neurons against neurotoxicity of beta-amyloid peptide 1-42 (neuronal cell numbers) ([2]; listed as alpha-aminoisobutric NAP): confers protection of neurons
- neuroprotective activity compared with unmodified NAP [2]: increased neuroprotective activity
- neuroprotective activity compared with unmodified NAP [2, 4]: increased activity
